# Assay results: patent US9988405B2, “O-phenyl chalcone compounds and uses thereof” (Neopanora Bio-technology (Zhuhai) Ltd., priority 2014, dated 2018)
# Like-named read-outs stand apart in the source and are kept apart here.
# Experiments:
# Type in all cases: cell-based
# [1] = test system: human ovary cancer cells A2780; test: SRB anti-proliferative assay, A2780; settings: read-out: Anti-proliferative IC50, A2780
# Method: (§1) The present example evaluated the anti-tumor activity of the molecules provided by the present invention. The present example mainly used a method with SRB (sulforhodamine B) dying, in which proteins in the cell were stained with SRB dye to determine protein content in the cell so as to characterize cell growth density. Firstly, the test compound was formulated into a stock solution (10 mM), which was stored at 4° C. in a refrigerator. Prior to beginning the assay, the stock solution was diluted with DMSO into a series of different concentrations. The required concentrations were obtained by diluting with complete growth medium. Well growing cells were seeded in a 96-well plate (5000 cells/well, 100 uL) and cultured in an incubator at 37° C., 5% CO2, and 90% RH. 24 h later, the prepared compound solution (100 μL) was slowly added to cell solution in the 96-well plate, and the well with DMSO (final concentration 0.5%) instead of the drug was used as a drug free control. The plate was incubated for 48 h. In addition, a day 0 plate that was drug free was directly detected after cell seeded in the plate for 24 h. The 96-well plate was taken out and added with trichloroacetic acid (50 μL, final concentration 10%). The plate was incubated at 4° C. for 1 h to fix the cells.
# (§2) The plate was washed with ultrapure water and air-dried. The plate was then stained with SRB dye (0.4% in 1% acetic acid, 100 μL) for 30 min at room temperature. The plate was then washed with 1% acetic acid and then air-dried. A Tris base solution (100 μL, 10 mM, pH10.4) was added, after which the plate was gently shaken for 1 h on an orbital shaker to ensure that the dyes were completed dissolved. The optical density (OD) was recorded on a TECAN Infinite M200 Pro multimode reader at 515 nm. The cell growth (% of control)=(OD value of wells added with drug−mean OD value of Day 0 plate)/(OD value of DMSO drug-free control well−mean OD value of Day 0 plate)*100.
# [2] = test system: human colon cancer cells SW480; test: SRB anti-proliferative assay, SW480; settings: read-out: Anti-proliferative IC50, SW480
# Method: as §1, §2
# [3] = test system: doxorubicin resistant breast cancer cell MCF-7/DOX; test: SRB anti-proliferative assay, drug-resistant MCF-7/DOX; settings: Homo sapiens, MCF7-DOX, read-out: Anti-proliferative IC50, MCF-7/DOX
# Method: as §1, §2
# (§3) We also evaluated the anti-proliferation activities of selected compounds against drug-resistant cancer cell lines.
# [4] = test system: human nasopharyngeal carcinoma cells CNE2; test: SRB anti-proliferative assay, CNE2; settings: read-out: Anti-proliferative IC50, CNE2
# Method: as §1, §2
# [5] = test system: human breast cancer cells MCF7; test: SRB anti-proliferative assay, MCF-7; settings: read-out: Anti-proliferative IC50, MCF-7
# Method: as §1, §2
# [6] = test system: cis-platinum resistant human lung cancer cell A549/CDDP; test: SRB anti-proliferative assay, drug-resistant A549/CDDP; settings: read-out: Anti-proliferative IC50, A549/CDDP
# Method: as §1, §2, §3
# [7] = test system: human colon cancer cells HCT8; test: SRB anti-proliferative assay, HCT-8; settings: read-out: Anti-proliferative IC50, HCT-8
# Method: as §1, §2
# [8] = test system: human lung cancer cells A549; test: SRB anti-proliferative assay, A549; settings: read-out: Anti-proliferative IC50, A549
# Method: as §1, §2
# [9] = test system: human liver cancer cell HepG2; test: SRB anti-proliferative assay, HepG2; settings: read-out: Anti-proliferative IC50, HepG2
# Method: as §1, §2
# [10] = test system: incristine resistant human ileocecum carcinoma cell HCT-8/VCT; test: SRB anti-proliferative assay, drug-resistant HCT-8/VCT; settings: HCT8/VCT, read-out: Anti-proliferative IC50, HCT-8/VCT
# Method: as §1, §2, §3
# [11] = test system: Paclitaxel-resistant human ovarian carcinoma cell A2780/TAX; test: SRB anti-proliferative assay, drug-resistant A2780/TAX; settings: read-out: Anti-proliferative IC50, A2780/TAX
# Method: as §1, §2, §3
# [12] = doxorubicin resistant MCF-7/DOX, SRB
# [13] = cis-platinum resistant A549/CDDP, SRB
# [14] = vincristine-resistant HCT-8/VCT, SRB
# [15] = paclitaxel-resistant A2780/TAX, SRB
SMILES,"IC50 ([1]; A2780, SRB, 48 h) [nM]","IC50 ([2]; SW480, SRB, 48 h) [nM]","IC50 [3, 12] [nM]","IC50 ([4]; CNE-2, CNE2, SRB, 48 h) [nM]","IC50 ([5]; MCF7, MCF-7, SRB, 48 h) [nM]","IC50 [6, 13] [nM]","IC50 ([7]; HCT-8, SRB, 48 h) [nM]","IC50 ([8]; A549, SRB, 48 h) [nM]","IC50 ([9]; HepG2, SRB, 48 h) [nM]","IC50 [10, 14] [nM]","IC50 [11, 15] [nM]",also measured
"COc1ccc(/C=C/C(=O)c2ccccc2-c2ccc(F)cc2)cc1OP(=O)(O)O [compound 11, (E)-(5-(3-(4′-Fluoro[1,1′-biphenyl]-2-yl)-3-oxoprop-1-en-1-yl)-2-Methoxyphenol) phosphate ester]",–,–,–,–,–,–,–,–,–,–,–,"IC50 ([1]; A2780, 48 h): 65 nM; IC50 ([2]; SW480, 48 h): 22 nM; IC50 [3]: 26 nM; IC50 ([4]; CNE-2, 48 h): 52 nM; IC50 ([5]; MCF7, 48 h): 96 nM; IC50 ([6]; A549/CDDP): 301 nM; IC50 ([7]; HCT-8, 48 h): 88 nM; IC50 ([8]; A549, 48 h): 23 nM; IC50 ([9]; HepG2, 48 h): 39 nM; IC50 [10]: 263 nM; IC50 ([11]; A2780/TAX): 125 nM"
"CN(C)c1ccc(/C=C/C(=O)c2ccccc2-c2cccc(F)c2)cc1O [compound 13, (E)-1-(3′-Fluoro[1,1′-biphenyl]-2-yl)-3-(3-hydroxy-4-(Dimethylamino)phenyl)prop-2-en-1-one]",10,6,5,15,69,69,14,11,9,37,43,–
"O=C(/C=C/c1ccc(N2CCCC2)cc1)c1ccccc1-c1cccc(F)c1 [compound 16, (E)-1-(3′-Fluoro[1,1′-biphenyl]-2-yl)-3-(4-pyrrolidine-1-yl)prop-2-en-1-one]",106,52,75,36,106,135,123,86,71,166,149,–
"CN(C)c1ccc(/C=C/C(=O)c2ccccc2-c2cccc(F)c2)cc1Br [compound 15, (E)-1-(3′-Fluoro[1,1′-biphenyl]-2-yl)-3-(3-bromo-4-(Dimethylamino)phenyl)prop-2-en-1-one]",89,87,75,46,124,118,99,88,44,112,95,–
"CC[C@]1(O)C[C@H]2CN(CCc3c([nH]c4ccccc34)[C@@](C(=O)OC)(c3cc4c(cc3OC)N(C=O)[C@H]3[C@@](O)(C(=O)OC)[C@H](OC(C)=O)[C@]5(CC)C=CCN6CC[C@]43[C@@H]65)C2)C1 [VCT, vincristine, reference compound]",–,–,4250,–,–,56,–,–,–,1920,927,–
O=C(O)c1ccc(/C=C/C(=O)c2ccccc2-c2cccc(F)c2)cc1 [compound 18],47,47,38,33,116,430,68,65,23,420,496,–

# More lines, in order of falling IC50 [6, 13], values ahead:
"IC50 ([1]; A2780, SRB, 48 h) [nM]","IC50 ([2]; SW480, SRB, 48 h) [nM]","IC50 [3, 12] [nM]","IC50 ([4]; CNE-2, CNE2, SRB, 48 h) [nM]","IC50 ([5]; MCF7, MCF-7, SRB, 48 h) [nM]","IC50 [6, 13] [nM]","IC50 ([7]; HCT-8, SRB, 48 h) [nM]","IC50 ([8]; A549, SRB, 48 h) [nM]","IC50 ([9]; HepG2, SRB, 48 h) [nM]","IC50 [10, 14] [nM]","IC50 [11, 15] [nM]",SMILES,also measured
39,48,26,55,87,317,36,44,44,117,130,"O=C(/C=C/c1cccc(O)c1)c1ccccc1-c1cccc(F)c1 [compound 12, (E)-1-(3′-Fluoro[1,1′-biphenyl]-2-yl)-3-(3-hydroxy)prop-2-en-1-one]",–
83,98,14600,75,138,290,165,291,170,3420,1940,"COc1cccc2c1C(=O)c1c(O)c3c(c(O)c1C2=O)C[C@@](O)(C(=O)CO)C[C@@H]3O[C@H]1C[C@H](N)[C@H](O)[C@H](C)O1 [DOX, doxorubicin, reference compound]",–
38,57,43,35,92,232,42,64,34,157,143,"Nc1cccc(/C=C/C(=O)c2ccccc2-c2cccc(F)c2)c1 [compound 19, (E)-1-(3′-Fluoro[1,1′-biphenyl]-2-yl)-3-(3-aminophenyl)prop-2-en-1-one]",–
15,14,8,18,55,93,17,20,13,85,61,"COc1ccc(/C=C/C(=O)c2ccccc2-c2ccc(F)cc2)cc1S(=O)(=O)O [compound 24, (E)-5-(3-(4′-Fluoro[1,1′-biphenyl]-2-yl)-3-oxoprop-1-en-1-yl)-2-methoxy benzenesulfonic acid]",–
16,16,11,19,49,74,20,18,18,69,123,"O=C(/C=C/c1ccc(O)c(S(=O)(=O)O)c1)c1ccccc1-c1cccc(F)c1 [compound 21, (E)-5-(3-(3′-Fluoro[1,1′-biphenyl]-2-yl)-3-oxoprop-1-en-1-yl)-2-Hydroxybenzenesulfonic acid]",–
39,19,21,23,70,63,35,38,20,81,136,"O=C(/C=C/c1ccc(O)c(S(=O)(=O)O)c1)c1ccccc1-c1ccc(F)cc1 [compound 22, (E)-5-(3-(4′-Fluoro[1,1′-biphenyl]-2-yl)-3-oxoprop-1-en-1-yl)-2-Hydroxybenzenesulfonic acid]",–
10,10,3,16,42,42,12,14,12,62,53,"COc1ccc(/C=C/C(=O)c2ccccc2-c2cccc(F)c2)cc1S(=O)(=O)O [compound 23, (E)-5-(3-(3′-Fluoro[1,1′-biphenyl]-2-yl)-3-oxoprop-1-en-1-yl)-2-methoxy benzenesulfonic acid]",–
–,–,–,–,–,9,–,–,–,2600,–,"CC(=O)O[C@H]1C(=O)[C@@]2(C)[C@H]([C@H](OC(=O)c3ccccc3)[C@]3(O)C[C@H](OC(=O)[C@H](O)[C@@H](NC(=O)c4ccccc4)c4ccccc4)C(C)=C1C3(C)C)[C@]1(OC(C)=O)CO[C@@H]1C[C@@H]2O [TAX, paclitaxel, reference compound]",–
